Measurements as given in ChEMBL document CHEMBL6153154, “Novel Carbocyclic Phenylpyrrolidinone Urea Compounds as FPR2 Agonists for Treating Atherosclerosis and Heart Failure” (ACS Med Chem Lett, 2025).

molecular target: T1, N-formyl peptide receptor 2 (Homo sapiens, UniProt P25090); experiment: Agonist activity at human FPR2 expressed in CHO cells assessed as forskolin-induced cAMP level incubated for 30 mins in presence of IBMX by HTRF HiRange cAMP assay; assay type: functional, cell-based
T1 sequence (P25090 whole entry): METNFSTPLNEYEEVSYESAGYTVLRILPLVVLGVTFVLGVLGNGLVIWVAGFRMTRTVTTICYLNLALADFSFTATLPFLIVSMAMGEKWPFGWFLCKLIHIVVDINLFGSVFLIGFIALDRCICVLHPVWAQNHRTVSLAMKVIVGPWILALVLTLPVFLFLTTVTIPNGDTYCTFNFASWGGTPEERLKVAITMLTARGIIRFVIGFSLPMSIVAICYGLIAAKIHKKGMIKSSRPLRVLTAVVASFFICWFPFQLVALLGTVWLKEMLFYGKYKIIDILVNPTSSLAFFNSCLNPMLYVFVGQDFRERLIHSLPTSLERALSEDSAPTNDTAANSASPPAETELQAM

Row | EC50 [nM] | Compound
1 | 0.48 | CP(C)(=O)CC1(c2ccc(N3CC[C@@H](NC(=O)Nc4ccc(C(F)(F)F)cc4F)C3=O)c(F)c2F)CCCC1
2 | 0.41 | CC(=O)NCC1(c2ccc(N3CC[C@@H](NC(=O)Nc4ccc(Cl)cc4F)C3=O)c(F)c2F)CC1
3 | 0.32 | O=C(Nc1ccc(Cl)cc1F)N[C@@H]1CCN(c2ccc(C3(CN4CCCC4=O)CC3)c(F)c2F)C1=O
4 | 0.49 | CC(C)S(=O)(=O)CC1(c2ccc(N3CC[C@@H](NC(=O)Nc4ccc(Cl)cc4F)C3=O)c(F)c2F)CC1
5 | 0.23 | O=C(Nc1ccc(C(F)(F)F)cc1F)N[C@@H]1CCN(c2ccc(C3(CN4CCCC4=O)CC3)c(F)c2F)C1=O
6 | 0.1 | CC(=O)N(C)CC1(c2ccc(N3CC[C@@H](NC(=O)Nc4ccc(C(F)(F)F)cc4F)C3=O)c(F)c2F)CC1
